“Also recorded” adds a separate entry of the source.
Key:
Hcn4 = Hcn4 expression in Tbx18-induced pacemaker cardiomyocytes (real-time PCR); format: cell-based, rat; conditions: for Hcn4 expression: 3 days, Tbx18-PCs
Protocol: (§1) For the experiments of drug treatment, Tbx18-PCs after re-expression of Tbx18 were treated with sodium pyruvate (1 mM, 11360-070, Thermo Fisher Scientific, 3 days), 2-deoxy-D-glucose (2-DG, 5 mM, D8375, Sigma-Aldrich, 3 days), wortmannin (PI3K inhibitor, 100 nM, 12-338, Merck Millipore, MA, USA, 4 days), anti-integrin β1 monoclonal antibody (ltgb1, MAB1987Z, 10 μg/mL, Merck Millipore, 2 days), or SB203580 (p38-MAP kinase inhibitor, 559389, 1 μM, Merck Millipore, 3 days), respectively. Then the beating rate and gene expression were analyzed.
(§2) Tbx18-PCs or human IPS-CMs were transduced with human Aldoc adenovirus (CMV promotor, 068583A, Applied Biological Materials, Richmond, BC, Canada), and CMV-null adenovirus was used as a control (000047A, Applied Biological Materials) for 24 hours. Aldoc overexpression was confirmed by Aldoc transcripts (FIG. 1J). The protein, gene transcripts, and beating rates were analyzed 3 days after transduction. The viral titer used in cell transduction of aldolase c overexpression is MOI of 10. The transduced cells were not subjected to enrichment by the antibiotic selection.
(§3) Total RNA was extracted from cultured VMs using the RNeasy® Mini Kit (74106, Qiagen, Venlo, Netherlands). Complementary DNAs (cDNAs) were synthesized using a SuperScript® […] First-Strand Synthesis System (18080051, Thermo Fisher Science). Quantitative real-time PCR (qRT-PCR) was performed using Applied Biosystems™ StepOnePlus Real-Time PCR system with TaqMan probe assays (4331182, Invitrogen, Waltham, Massachusetts, USA) and PrimeTime qPCR Probe Assays (Integrated DNA Technologies, Inc., Coralville, Iowa, USA). The internal control was Gapdh. The conditions of thermocycle used in amplification were denaturation at 95° C. for 15 seconds and annealing and extension step at 60° C. for 60 seconds by 40 cycles. The relative values of gene transcripts were analyzed by ΔΔCt method. All the probes used are listed below in Table 1.

[1] = test system: Tbx18-induced pacemaker cardiomyocytes; test: Beating rate / electrical firing rate of Tbx18-induced pacemaker cardiomyocytes (video or MEA); format: cell-based, rat
Protocol: (§4) The Tbx18-PCs were used as the cell model of pacemaker cardiomyocytes, which were generated by the transduction of VMs with adenoviral human Tbx18 (MOI [multiplicity of infection]: 10; green fluorescent protein [GFP] reporter, ADV-225152, Vector Biolabs, Malvern, USA) for 24 hours (Kapoor et al; Hu et al.). Those with adenovirus-CMV-GFP were used as control VMs (Tsai et al., J Biomed Sci, 2015). For the cocultures of Tbx18-PCs and fibroblasts, a ratio of fibroblasts/VMs ( 1/10) was first plated on fibronectin-coated wells, and adenoviral Tbx18 was transduced for 24 hours one day after seeding to induce PCs. […] Therefore, the beating rates, metabolic and molecular phenotypes, including microelectrode array (MEA), whole transcriptomes, Seahorse analysis, metabolomics, glycolysis metabolites (lactate or DHAP), protein and gene transcripts were analyzed 3-5 days after Tbx18 transduction. The beating rates were recorded by MEA or video. An inverted microscope (AXIO Observer Al, Carl Zeiss AG, Oberkochen, Germany) was used for 10-second video capture. Video was analyzed with Q Capture Pro 6.0 (Teledyne Technologies, CA, USA).
as §1, §2
MEA was used to record electrical firing in Tbx18-PCs, Tbx18-PC tissue sheets, or human IPS-CMs. The cells or tissue sheets were seeded on fibronectin-coated MEA CytoView MEA 24-White plate at 37° C. and 5% C02 (M384-tMEA-24W, Axion BioSystems, Atlanta, USA). The electrical firing rates were recorded by Maestro Edge (Axion BioSystems). The continuous recording of electrical signals for 5 minutes was used for the analysis (sampling frequency: 12.5 kHz, low pass and high pass filter: 2 kHz and 0.1 Hz) by AxIS Navigator software Axion BioSystems. In human IPS-CMs, the cells were further treated with epinephrine (150 ng/mL, Taiwan Biotech Co., Ltd) after recording baseline electrical firing rate. Similarly, continuous recording of electrical signals for 5 minutes after the treatment was used for the analysis.
The cocultures of Tbx18-pacemaker cardiomyocytes (PCs) and fibroblasts, a ratio of fibroblasts/VMs ( 1/10) was first plated on fibronectin-coated wells, and adenoviral Tbx18 (MOI [multiplicity of infection]: 10, ADV-225152, Vector Biolabs, Malvern, USA) was transduced for 24 hours after seeding to induce PCs. After re-expression of Tbx18 were treated with the inhibitors of PI3K (wortmannin, PIK-75, Duvelisib, Alpelisib, Copanlisib, Idelalisib, and Eganelisib), and one IKK inhibitor (BMS-345541) for 4 days. Then the beating rate and Aldoc transcriptional expressions were analyzed. The beating rates were recorded by video. An inverted microscope (AXIO Observer Al, Carl Zeiss AG, Oberkochen, Germany) was used for 10-second video capture. We analyzed the video with Q Capture Pro 6.0 (Teledyne Technologies, CA, USA). Aldoc gene transcriptional expressions were analyzed by quantitative real-time PCR. […]

aldolase c (Aldoc) = test: Aldoc transcripts by quantitative real-time PCR in treated Tbx18-PC/fibroblast cocultures; format: cell-based, rat; conditions: for transcriptional expressions of Aldolase C / Aldolase C expressions: 4 days; for aldolase c expressions within pacemaker cardiomyocytes: in-vitro, summary statement, concentration not given at the place
Protocol: as §4
For the experiments of drug treatment, Tbx18-PCs after re-expression of Tbx18 were treated with sodium pyruvate (1 mM, 11360-070, Thermo Fisher Scientific, 3 days), 2-deoxy-D-glucose (2-DG, 5 mM, D8375, Sigma-Aldrich, 3 days), wortmannin (PI3K inhibitor, 100 nM, 12-338, Merck Millipore, MA, USA, 4 days), anti-integrin β1 monoclonal antibody (ltgb1, MAB1987Z, 10 μg/mL, Merck Millipore, 2 days), or SB203580 (p38-MAP kinase inhibitor, 559389, 1 μM, Merck Millipore, 3 days), respectively. Then the beating rate and gene expression were analyzed. […]
as §3
The cocultures of Tbx18-pacemaker cardiomyocytes (PCs) and fibroblasts, a ratio of fibroblasts/VMs ( 1/10) was first plated on fibronectin-coated wells, and adenoviral Tbx18 (MOI [multiplicity of infection]: 10, ADV-225152, Vector Biolabs, Malvern, USA) was transduced for 24 hours after seeding to induce PCs. After re-expression of Tbx18 were treated with the inhibitors of PI3K (wortmannin, PIK-75, Duvelisib, Alpelisib, Copanlisib, Idelalisib, and Eganelisib), and one IKK inhibitor (BMS-345541) for 4 days. Then the beating rate and Aldoc transcriptional expressions were analyzed. The beating rates were recorded by video. An inverted microscope (AXIO Observer Al, Carl Zeiss AG, Oberkochen, Germany) was used for 10-second video capture. We analyzed the video with Q Capture Pro 6.0 (Teledyne Technologies, CA, USA). Aldoc gene transcriptional expressions were analyzed by quantitative real-time PCR. The protocol is as same as the treatment described previously (FIGS. 31A-31B).
Total RNA was extracted from cultured VMs using the RNeasy® Mini Kit (74106, Qiagen, Venlo, Netherlands). Complementary DNAs (cDNAs) were synthesized using a SuperScript® […] First-Strand Synthesis System (18080051, Thermo Fisher Science). […]

Tbx18-PC tissue sheets = test: Beating rate / electrical firing of engineered Tbx18-PC tissue sheets; format: cell-based, rat; conditions: epinephrine 0.15 μg/mL
Protocol: The fibroblasts and VMs were mixed in a ratio of 1:10 (fibroblast/VMs, total cell number: 1×10^6) with an extracellular matrix of 10% Matrigel (354230, Corning®) in the cultured-insert (80209, 0.22 mm^2, ibidi GmbH, Grsfelfing, Germany) for gelation at 37° C. The engineered tissue was transduced with adenoviral human Tbx18 or control vectors 24 hours after gelation. The constant beating was usually observed 4-5 days after Tbx18 adenovirus transduction. Therefore, phenotypes were determined using immunofluorescence staining, beating rate (either video recording or microelectrode array), and real-time quantitative PCR after virus transduction for 5-6 days. The autonomic response of Tbx18-PC tissue sheets was evaluated by treatment with epinephrine (Taiwan Biotech Co., Ltd, Taoyuan, Taiwan).
The Tbx18-PC cocultures were treated with 200 nM siRNAs (Dharmacon™, GE Healthcare, Lafayette, CO, USA or GenePharma, Shanghai, China) or negative controls (nontarget siRNAs, D-001810-10-05, Dharmacon™ or negative controls, GenePharma) for 24 hours using DharmaFECT transfection reagent (Dharmacon™) in serum-free and antibiotic-free medium. Cells were incubated at 37° C. in 5% C02 for 96 hours, and the beating rate was recorded by microelectrode array (MEA) or video. Then, total RNA was extracted for real-time PCR analysis. […]

mouse SAN = test: Heart rate recording (ECG) in mice; format: in vivo; conditions: epinephrine 2.5 μg intraperitoneal, control (scramble) mice
Protocol: Male mice (C57BL/6, 26 to 32 g, 13-14 weeks, National Laboratory Animal Center, Taiwan) were mechanically ventilated at a controlled temperature (37° C.±0.5° C.) under general anesthesia (isoflurane). […] AAV9 siRNA or scramble virus with a reporter of green fluorescent protein (1.44×10^9 gene copies; AAV9 scramble siRNA [iAAV01509] and Aldoc siRNA pooled virus [117530940219], Applied Biological Materials, Canada) was added to the pericardial recess through the opening. […] The survival rate was 100%. All animals were included except one scramble animal. One animal from the scramble group was excluded because arrhythmia was observed before the experiment.
Two weeks later, the three-lead surface ECG (Biopac, MP36, CA, USA) was recorded on mice by inserting needle electrodes subcutaneously into the limbs after anesthesia. The heart rate was recorded for 2 minutes first to compare the knockdown and control groups. Then, we performed a peritoneal injection of epinephrine (2.5 μg, Taiwan Biotech) and recorded the heart rate for 5 minutes after the injection. After the recording, the mouse hearts were removed for tissue analysis. ECG data were analyzed by Biopac Student Lab 4.1 software (Biopac).

[2] = in-vitro, summary statement, concentration not given at the place

Compound: O=CC[C@@H](O)[C@H](O)[C@H](O)CO [2-DG, 2-deoxy-D-glucose]
- Hcn4 expression (Hcn4; 2-DG 5 mM): decreased
- beating rate ([1]; 2-DG 5 mM, 3 days, Tbx18-PCs): decreased

Compound: Cc1nc(NC(=O)N2CCC[C@H]2C(N)=O)sc1-c1ccnc(C(C)(C)C(F)(F)F)c1 [Alpelisib]
- transcriptional expressions of Aldolase C (aldolase c (Aldoc); 250 nM, control 0.87±0.05, P=0.008): 1.13±0.05
- aldolase c expressions within pacemaker cardiomyocytes (aldolase c (Aldoc)): increased
- beating rates [1, 2]: increased

Compound: Cc1ccc2nc(NCCN)c3ncc(C)n3c2c1 [BMS-345541]
- Hcn4 expressions (Hcn4; BMS-345541 5 μM, vs control): increased
- Aldolase C expressions (aldolase c (Aldoc); BMS-345541 5 μM, vs control): increased
- aldolase c expressions within pacemaker cardiomyocytes (aldolase c (Aldoc)): increased
- beating rate ([1]; BMS-345541 1-10 μM, 4 days, vs control): increased
- beating rates [1, 2]: increased

Compound: COc1c(OCCCN2CCOCC2)ccc2c1N=C(NC(=O)c1cnc(N)nc1)N1CCN=C21 [Copanlisib]
- transcriptional expressions of Aldolase C (aldolase c (Aldoc); 10 nM, control 0.64±0.09, P=0.002): 1.32±0.09
- aldolase c expressions within pacemaker cardiomyocytes (aldolase c (Aldoc)): increased
- beating rates [1, 2]: increased

Compound: C[C@H](Nc1ncnc2nc[nH]c12)c1cc2cccc(Cl)c2c(=O)n1-c1ccccc1 [Duvelisib]
- transcriptional expressions of Aldolase C (aldolase c (Aldoc); 50 nM, control 0.82±0.08, P=0.02): 1.17±0.11

Compound: C[C@H](NC(=O)c1c(N)nn2cccnc12)c1cc2cccc(C#Cc3cnn(C)c3)c2c(=O)n1-c1ccccc1 [Eganelisib]
- transcriptional expressions of Aldolase C (aldolase c (Aldoc); 40 nM, control 0.57±0.03, P=0.013): 0.82±0.07
- aldolase c expressions within pacemaker cardiomyocytes (aldolase c (Aldoc)): increased
- beating rates [1, 2]: increased

Compound: CC[C@H](Nc1ncnc2[nH]cnc12)c1nc2cccc(F)c2c(=O)n1-c1ccccc1 [Idelalisib]
- transcriptional expressions of Aldolase C (aldolase c (Aldoc); 100 nM, control 0.87±0.05, P=0.02): 1.01±0.02
- aldolase c expressions within pacemaker cardiomyocytes (aldolase c (Aldoc)): increased
- beating rates [1, 2]: increased

Compound: Cc1ccc([N+](=O)[O-])cc1S(=O)(=O)N(C)/N=C/c1cnc2ccc(Br)cn12 [PIK-75]
- Aldolase C expressions (aldolase c (Aldoc); PIK-75 high dose (10 nM), vs control): increased
- aldolase c expressions within pacemaker cardiomyocytes (aldolase c (Aldoc)): increased
- beating rate ([1]; PIK-75 high dose (10 nM), 4 days, vs control): increased
- beating rate ([1]; PIK-75 low dose (1-5 nM), 4 days, vs control): increased
- beating rates [1, 2]: increased

Compound: C[S+]([O-])c1ccc(-c2nc(-c3ccncc3)c(-c3ccc(F)cc3)[nH]2)cc1 (stereo not shown) [SB203580]
- Aldoc expression (aldolase c (Aldoc); SB203580 1 μM, 3 days, cocultures, vs control): decreased; also recorded: reduced

Compound: CNC[C@H](O)c1ccc(O)c(O)c1 [epinephrine]
- beating rate (Tbx18-PC tissue sheets; Tbx18-PC tissue sheets): increased
- beating rate (Tbx18-PC tissue sheets; control tissue sheets): minimal changes
- heart rate (mouse SAN): increased

Compound: CC(=O)C(=O)[O-].[Na+] [sodium pyruvate]
- Hcn4 expression (Hcn4; sodium pyruvate 1 mM): increased
- beating rates ([1]; sodium pyruvate 1 mM, 3 days, Tbx18-PCs): increased
